Values quoted from earlier work in PMC12333026, “Versatile Imidazole Scaffold with Potent Activity against Multiple Apicomplexan Parasites” (ACS Infectious Diseases, 2025).

Molecular target: PfPKG (Plasmodium falciparum, UniProt Q8I719)
Design: method as in number not shown in text
Settings: enantiomer comparison; recently reported by the authors, ref number not shown in text; cited from earlier work

PfPKG, sequence (Q8I719 whole entry): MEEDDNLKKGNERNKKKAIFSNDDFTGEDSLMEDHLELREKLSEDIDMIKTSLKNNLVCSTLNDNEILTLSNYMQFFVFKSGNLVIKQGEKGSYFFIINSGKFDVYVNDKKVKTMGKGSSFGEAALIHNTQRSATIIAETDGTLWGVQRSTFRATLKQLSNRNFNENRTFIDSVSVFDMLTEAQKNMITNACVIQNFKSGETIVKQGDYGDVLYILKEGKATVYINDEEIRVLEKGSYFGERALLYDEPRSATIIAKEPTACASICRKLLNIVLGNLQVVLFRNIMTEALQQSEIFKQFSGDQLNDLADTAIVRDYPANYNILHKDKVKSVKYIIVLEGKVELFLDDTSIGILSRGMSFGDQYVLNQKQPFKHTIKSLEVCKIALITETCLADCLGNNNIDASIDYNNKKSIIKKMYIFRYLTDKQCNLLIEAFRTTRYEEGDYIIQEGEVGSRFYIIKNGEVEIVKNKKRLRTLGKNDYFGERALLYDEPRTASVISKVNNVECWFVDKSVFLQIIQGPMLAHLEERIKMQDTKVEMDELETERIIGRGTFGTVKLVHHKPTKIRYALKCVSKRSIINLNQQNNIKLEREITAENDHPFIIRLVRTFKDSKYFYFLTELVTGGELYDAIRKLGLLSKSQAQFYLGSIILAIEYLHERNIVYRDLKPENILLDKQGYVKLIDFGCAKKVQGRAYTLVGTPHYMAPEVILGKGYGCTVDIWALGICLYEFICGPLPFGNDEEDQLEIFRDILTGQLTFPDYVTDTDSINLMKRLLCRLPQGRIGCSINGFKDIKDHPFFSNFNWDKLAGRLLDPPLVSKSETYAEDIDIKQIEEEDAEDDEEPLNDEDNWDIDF

## O=C(c1nccs1)N1CC[C@H](Nc2nccc(-n3cc(C4CC4)nc3-c3ccccc3)n2)C1 [(S)-RY-1-165]
  PfPKG inhibition (in words): inactive
